System: MDA-MB-231 multicell spheroids, viability
Assay: Anticancer human tumor MDA-MB-231 cell line growth inhibition [PI3K];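 note: spheroids exposed to agents for seven days before reading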;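 for viability, T/C: percent of vehicle control luminescence with DMSO treated spheroids as 100%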
Settings: for IC50: curve of first compound; for viability, T/C: stronger effect = lower value
Source text: Combinatorial screen of targeted agents with the PI3K inhibitors inavolisib, alpelisib, duvelisib, and copanlisib in multi-cell type tumor spheroids
A high-throughput screen of multi-cell type tumor spheroids was designed to identify active combinations of targeted small molecules and PI3K pathway inhibitors. Complex spheroids include a stromal component modeled by human endothelial cells (HUVEC) and fibroblasts modeled by human mesenchymal stem cells (MSCs). The concentration ranges selected for each drug and investigational agent were based upon clinically achievable concentrations if the clinical Cmax of the agent was known.
Compounds. The drugs and investigational agents: inavolisib (NSC800729), alpelisib (NSC765974), duvelisib (NSC772469), copanlisib (NSC816437), ipatasertib (NSC767898), afuresertib (NSC778305), talazoparib (NSC767125), sapanisertib (NSC764658), selumetinib (NSC741078), tovorafenib (DAY101, NSC766906), vemurafenib (NSC761431), ravoxertinib (NSC781343), sotorasib (NSC818433), MRTX1133 (NSC 836407), abemaciclib (NSC 768073), palbociclib (NSC758247), venetoclax (NSC 766270), SY5609 (NSC837396), enzalutamide (NSC755605), and darolutamide (NSC825331), were obtained from the National Cancer Institute (NCI) Developmental Therapeutics Program Chemical Repository. The FDA-approved anticancer drug set is available from the NCI Developmental Therapeutics Program. […] The stock solutions were prepared in dimethyl sulfoxide (DMSO, Sigma-Aldrich, St. Louis, MO, cat. D2650) at 800-fold the tested concentration and stored at -70 degrees C prior to their use. All drugs and investigational agents were tested over a range starting from a high concentration at or near the clinical Cmax and decreasing in half-log increments. If the clinical Cmax for an agent had not been determined, the highest concentration tested was 10 microM.
Cell Culture. All cells were maintained in an incubator at 37 degrees C and 5% CO2 with 95% humidity. The PDC lines were cultured according to standard operating procedures established by the NCI PDMR (https://pdmr.cancer.gov/sops/default.htm). All PDCs were thawed and cultured in Matrigel-coated flasks prepared with a working solution of 1X Ham's F-12 nutrient mix, without supplementation (Invitrogen, Waltham, MA, cat. 11765054), 100 U/mL penicillin-streptomycin (Invitrogen, cat. 15140122), and 2.5% Matrigel (Corning Inc., Corning, NY, cat. 354248) for the first three passages. The 354836-022-R-J1-PDC, 475296-252-R-J1-PDC, and 997726-040-R-J2-PDC lines were cultured in 6A media, which includes advanced DMEM/F-12 (Thermo Fisher Scientific, cat. 12634028), 10 mM HEPES (Thermo Fisher Scientific, cat. 15630080), 1X GlutaMAX supplement (Thermo Fisher Scientific, cat. 35050061), 0.1 mg/mL primocin (InvivoGen, San Diego, CA, cat. ant-pm-2), 10% defined fetal bovine serum, heat inactivated (HyClone Laboratories Inc., Logan, UT, cat. SH30070.03HI), 50% L-WRN conditioned media (ATCC, cat. CRL-3276), 1.25 mM N-Acetyl-L-cysteine (Sigma-Aldrich, cat. A9165), 10 mM nicotinamide (Sigma-Aldrich, cat. N0636), 1X B-27 supplement (Thermo Fisher Scientific, cat. 17504044), 1X N-2 supplement (Thermo Fisher Scientific, cat. 17502048), and 10 microM Y-27632 dihydrochloride (Tocris Bioscience, Bristol, United Kingdom, cat. 1254). The 624824-186-R-J2-PDC line was cultured in 6C/Colon 1B media, which includes all 6A media components plus 50 ng/mL human EGF recombinant protein (Thermo Fisher Scientific, cat. PHG0311). […]

[1] = second compound 0.00316 µM, first compound 0.00316 µM
[2] = second compound 0.00316 µM, first compound 0.01 µM
[3] = second compound 0.00316 µM, first compound 0.0316 µM
[4] = second compound 0.00316 µM, first compound 0.1 µM
[5] = second compound 0.01 µM, first compound 0.00316 µM
[6] = second compound 0.01 µM, first compound 0.01 µM
[7] = second compound 0.01 µM, first compound 0.0316 µM
[8] = second compound 0.01 µM, first compound 0.1 µM
[9] = second compound 0.0316 µM, first compound 0.00316 µM
[10] = second compound 0.0316 µM, first compound 0.01 µM
[11] = second compound 0.0316 µM, first compound 0.0316 µM
[12] = second compound 0.0316 µM, first compound 0.1 µM
[13] = second compound 0.1 µM, first compound 0.00316 µM
[14] = second compound 0.1 µM, first compound 0.01 µM
[15] = second compound 0.1 µM, first compound 0.0316 µM
[16] = second compound 0.1 µM, first compound 0.1 µM
[17] = second compound 0.316 µM, first compound 0.00316 µM
[18] = second compound 0.316 µM, first compound 0.01 µM
[19] = second compound 0.316 µM, first compound 0.0316 µM
[20] = second compound 0.316 µM, first compound 0.1 µM
[21] = second compound 1 µM, first compound 0.00316 µM
[22] = second compound 1 µM, first compound 0.01 µM
[23] = second compound 1 µM, first compound 0.0316 µM
[24] = second compound 1 µM, first compound 0.1 µM

CCN1CCN(Cc2ccc(Nc3ncc(F)c(-c4cc(F)c5nc(C)n(C(C)C)c5c4)n3)nc2)CC1 + CC(Nc1ccc2c(c1)OCCn1cc(N3C(=O)OCC3C(F)F)nc1-2)C(N)=O
IC50 (second compound 0.00316 µM): 131 nM | IC50 (second compound 0.01 µM): 79.2 nM | IC50 (second compound 0.0316 µM): 53.2 nM | IC50 (second compound 0.1 µM): 24.4 nM | IC50 (second compound 0.316 µM): 21.4 nM | IC50 (second compound 1 µM): 20 nM | viability, T/C [1]: 90.8% | viability, T/C [2]: 103% | viability, T/C [3]: 76% | viability, T/C [4]: 54.5% | viability, T/C (second compound 0.00316 µM, first compound 0.316 µM): 41.9% | viability, T/C (second compound 0.00316 µM, first compound 1 µM): 44.9% | viability, T/C [5]: 92.7% | viability, T/C [6]: 96.3% | viability, T/C [7]: 65.7% | viability, T/C [8]: 50.1% | viability, T/C (second compound 0.01 µM, first compound 0.316 µM): 40.6% | viability, T/C (second compound 0.01 µM, first compound 1 µM): 47% | viability, T/C [9]: 80.2% | viability, T/C [10]: 84.3% | viability, T/C [11]: 57.4% | viability, T/C [12]: 42.6% | viability, T/C (second compound 0.0316 µM, first compound 0.316 µM): 35% | viability, T/C (second compound 0.0316 µM, first compound 1 µM): 45.5% | viability, T/C [13]: 69.5% | viability, T/C [14]: 70.4% | viability, T/C [15]: 44.2% | viability, T/C [16]: 37.1% | viability, T/C (second compound 0.1 µM, first compound 0.316 µM): 33.3% | viability, T/C (second compound 0.1 µM, first compound 1 µM): 43.8% | viability, T/C [17]: 63.4% | viability, T/C [18]: 62.8% | viability, T/C [19]: 43.4% | viability, T/C [20]: 36.5% | viability, T/C (second compound 0.316 µM, first compound 0.316 µM): 35.4% | viability, T/C (second compound 0.316 µM, first compound 1 µM): 43.5% | viability, T/C [21]: 60.1% | viability, T/C [22]: 64.8% | viability, T/C [23]: 41.7% | viability, T/C [24]: 34.5% | viability, T/C (second compound 1 µM, first compound 0.316 µM): 34.4% | viability, T/C (second compound 1 µM, first compound 1 µM): 39.1%

Cn1ncnc1[C@H]1c2n[nH]c(=O)c3cc(F)cc(c23)N[C@@H]1c1ccc(F)cc1 + CC(Nc1ccc2c(c1)OCCn1cc(N3C(=O)OCC3C(F)F)nc1-2)C(N)=O
IC50 (second compound 0.00316 µM): > 100 nM | IC50 (second compound 0.01 µM): > 100 nM | IC50 (second compound 0.0316 µM): > 100 nM | IC50 (second compound 0.1 µM): 74 nM | IC50 (second compound 0.316 µM): 47.1 nM | IC50 (second compound 1 µM): 17.6 nM | viability, T/C (second compound 0.00316 µM, first compound 0.000316 µM): 99.1% | viability, T/C (second compound 0.00316 µM, first compound 0.001 µM): 93.9% | viability, T/C [1]: 97.8% | viability, T/C [2]: 87.8% | viability, T/C [3]: 82.4% | viability, T/C [4]: 74.5% | viability, T/C (second compound 0.01 µM, first compound 0.000316 µM): 90.7% | viability, T/C (second compound 0.01 µM, first compound 0.001 µM): 95% | viability, T/C [5]: 81.8% | viability, T/C [6]: 84.4% | viability, T/C [7]: 78.2% | viability, T/C [8]: 78.3% | viability, T/C (second compound 0.0316 µM, first compound 0.000316 µM): 78.1% | viability, T/C (second compound 0.0316 µM, first compound 0.001 µM): 86.7% | viability, T/C [9]: 75.4% | viability, T/C [10]: 73.5% | viability, T/C [11]: 63.7% | viability, T/C [12]: 58.9% | viability, T/C (second compound 0.1 µM, first compound 0.000316 µM): 70.8% | viability, T/C (second compound 0.1 µM, first compound 0.001 µM): 69.7% | viability, T/C [13]: 65% | viability, T/C [14]: 62.4% | viability, T/C [15]: 50.5% | viability, T/C [16]: 50.1% | viability, T/C (second compound 0.316 µM, first compound 0.000316 µM): 62.7% | viability, T/C (second compound 0.316 µM, first compound 0.001 µM): 64.3% | viability, T/C [17]: 59.4% | viability, T/C [18]: 56.9% | viability, T/C [19]: 49.4% | viability, T/C [20]: 47.7% | viability, T/C (second compound 1 µM, first compound 0.000316 µM): 63.2% | viability, T/C (second compound 1 µM, first compound 0.001 µM): 58% | viability, T/C [21]: 53.9% | viability, T/C [22]: 51.6% | viability, T/C [23]: 50% | viability, T/C [24]: 45.4%

Source: PubChem BioAssay AID1963958 (Molecular Pharmacology Branch, DTP, NCI, 2024)
